Data reported in ChEMBL document CHEMBL1201861, “Genomics of Drug Sensitity in Cancer screening data, Wellcome Trust Sanger Institute”.

Columns and labels:
Experiment in all cases: cells
[1] = system: CTV-1; format: functional, cell-based, Homo sapiens; details: Homo sapiens, CTV-1;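 note: growth inhibition of the cell line, read out with a cell viability assay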
Description: SANGER: Inhibition of human CTV-1 cell growth in a cell viability assay.

[2] = system: D-263MG; format: functional, cell-based, Homo sapiens; details: Homo sapiens, D-263MG
Description: SANGER: Inhibition of human D-263MG cell growth in a cell viability assay.

[3] = system: EKVX; format: functional, cell-based, Homo sapiens; details: Homo sapiens, EKVX;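 note: growth inhibition of human EKVX cells, read out with a cell viability assay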
Description: SANGER: Inhibition of human EKVX cell growth in a cell viability assay.

[4] = system: ES3; format: functional, cell-based, Homo sapiens; details: Homo sapiens, ES3;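 note: growth inhibition of ES3 cells, read out with a cell viability assay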
Description: SANGER: Inhibition of human ES3 cell growth in a cell viability assay.

[5] = system: ES6; format: functional, cell-based; details: Homo sapiens;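 note: growth inhibition of human ES6 cells, read out with a cell viability assay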
Description: SANGER: Inhibition of human ES6 cell growth in a cell viability assay.

[6] = system: EW-18; format: functional, cell-based, Homo sapiens; details: Homo sapiens, EW-18; read-out: IC50;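 note: growth inhibition of EW-18 cells, read out by a cell viability assay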
Description: SANGER: Inhibition of human EW-18 cell growth in a cell viability assay.

[7] = system: HAL-01; format: functional, cell-based, Homo sapiens; details: Homo sapiens, HAL-01;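 note: growth inhibition of human HAL-01 cells, read out with a cell viability assay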
Description: SANGER: Inhibition of human HAL-01 cell growth in a cell viability assay.

[8] = system: HDLM-2; format: functional, cell-based, Homo sapiens; details: Homo sapiens, HDLM-2;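 note: cell viability assay measuring suppression of HDLM-2 proliferation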
Description: SANGER: Inhibition of human HDLM-2 cell growth in a cell viability assay.

[9] = system: HH; format: functional, cell-based, Homo sapiens; details: Homo sapiens, HH
Description: SANGER: Inhibition of human HH cell growth in a cell viability assay.

[10] = system: JVM-2; format: functional, cell-based, Homo sapiens; details: Homo sapiens, JVM-2;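 note: growth inhibition of JVM-2 cells determined by a cell viability assay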
Description: SANGER: Inhibition of human JVM-2 cell growth in a cell viability assay.

[11] = system: JVM-3; format: functional, cell-based, Homo sapiens; details: Homo sapiens, JVM-3;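 note: growth inhibition of human JVM-3 cells, read out with a cell viability assay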
Description: SANGER: Inhibition of human JVM-3 cell growth in a cell viability assay.

[12] = system: KE-37; format: functional, cell-based, Homo sapiens; details: Homo sapiens, KE-37;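 note: growth inhibition of KE-37 cells, read out with a cell viability assay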
Description: SANGER: Inhibition of human KE-37 cell growth in a cell viability assay.

[13] = system: KG-1; format: functional, cell-based, Homo sapiens; details: Homo sapiens, KG-1;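 note: growth inhibition of KG-1 cells, read out by a cell viability assay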
Description: SANGER: Inhibition of human KG-1 cell growth in a cell viability assay.

[14] = system: KURAMOCHI; format: functional, cell-based, Homo sapiens; details: Homo sapiens, KURAMOCHI;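 note: growth inhibition of KURAMOCHI cells, read out with a cell viability assay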
Description: SANGER: Inhibition of human KURAMOCHI cell growth in a cell viability assay.

[15] = system: KY821; format: functional, cell-based, Homo sapiens; details: Homo sapiens, KY821;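 note: growth inhibition of human KY821 cells, read out by a cell viability assay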
Description: SANGER: Inhibition of human KY821 cell growth in a cell viability assay.

[16] = system: L-363; format: functional, cell-based, Homo sapiens; details: Homo sapiens, L-363
Description: SANGER: Inhibition of human L-363 cell growth in a cell viability assay.

[17] = system: LAMA-84; format: functional, cell-based, Homo sapiens; details: Homo sapiens, LAMA-84;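 note: growth inhibition of LAMA-84 cells, read out with a cell viability assay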
Description: SANGER: Inhibition of human LAMA-84 cell growth in a cell viability assay.

[18] = system: LAN-6; format: functional, cell-based, Homo sapiens; details: Homo sapiens, LAN-6;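 note: growth inhibition of LAN-6 cells, determined with a cell viability assay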
Description: SANGER: Inhibition of human LAN-6 cell growth in a cell viability assay.

[19] = system: LB1047-RCC; format: functional, cell-based, Homo sapiens; details: Homo sapiens, LB1047-RCC;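 note: inhibition of cell growth, determined with a cell viability assay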
Description: SANGER: Inhibition of human LB1047-RCC cell growth in a cell viability assay.

[20] = system: LC-2-ad; format: functional, cell-based, Homo sapiens; details: Homo sapiens, LC-2-ad;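 note: growth inhibition of human LC-2-ad cells, read out with a cell viability assay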
Description: SANGER: Inhibition of human LC-2-ad cell growth in a cell viability assay.

[21] = system: LS-1034; format: functional, cell-based, Homo sapiens; details: Homo sapiens, LS-1034
Description: SANGER: Inhibition of human LS-1034 cell growth in a cell viability assay.

[22] = system: LS-123; format: functional, cell-based, Homo sapiens; details: Homo sapiens, LS-123
Description: SANGER: Inhibition of human LS-123 cell growth in a cell viability assay.

[23] = system: LU-134-A; format: functional, cell-based, Homo sapiens; details: Homo sapiens, LU-134-A
Description: SANGER: Inhibition of human LU-134-A cell growth in a cell viability assay.

[24] = system: LU-139; format: functional, cell-based, Homo sapiens; details: Homo sapiens, LU-139
Description: SANGER: Inhibition of human LU-139 cell growth in a cell viability assay.

[25] = system: Lu-65; format: functional, cell-based, Homo sapiens; details: Homo sapiens, Lu-65;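 note: growth inhibition of Lu-65 cancer cells, read out by a cell viability assay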
Description: SANGER: Inhibition of human LU-65 cell growth in a cell viability assay.

[26] = system: LXF-289 cell line; format: functional, cell-based; details: Homo sapiens
Description: SANGER: Inhibition of human LXF-289 cell growth in a cell viability assay.

[27] = system: MS-1; format: functional, cell-based, Homo sapiens; details: Homo sapiens, MS-1;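 note: growth inhibition of MS-1 cells, read out by cell viability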
Description: SANGER: Inhibition of human MS-1 cell growth in a cell viability assay.

[28] = system: NCI-H1650; format: functional, cell-based, Homo sapiens; details: Homo sapiens, NCI-H1650;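 note: growth inhibition of human NCI-H1650 cells measured by a cell viability assay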
Description: SANGER: Inhibition of human NCI-H1650 cell growth in a cell viability assay.

[29] = system: NCI-H23; format: functional, cell-based, Homo sapiens; details: Homo sapiens, NCI-H23;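 note: cell viability assay measuring growth inhibition of NCI-H23 cells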
Description: SANGER: Inhibition of human NCI-H23 cell growth in a cell viability assay.

[30] = system: NCI-H526; format: functional, cell-based, Homo sapiens; details: Homo sapiens, NCI-H526;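 note: growth inhibition of the human NCI-H526 cell line, measured by a cell viability assay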
Description: SANGER: Inhibition of human NCI-H526 cell growth in a cell viability assay.

[31] = system: NCI-H69; format: functional, cell-based, Homo sapiens; details: Homo sapiens, NCI-H69;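 note: growth inhibition of the cell line, read out with a cell viability assay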
Description: SANGER: Inhibition of human NCI-H69 cell growth in a cell viability assay.

[32] = system: NCI-H747; format: functional, cell-based, Homo sapiens; details: Homo sapiens, NCI-H747;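 note: growth inhibition of human NCI-H747 cells, read out by a cell viability assay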
Description: SANGER: Inhibition of human NCI-H747 cell growth in a cell viability assay.

[33] = system: NCI-H82; format: functional, cell-based, Homo sapiens; details: Homo sapiens, NCI-H82;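 note: growth inhibition of NCI-H82 cells, measured with a cell viability readout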
Description: SANGER: Inhibition of human NCI-H82 cell growth in a cell viability assay.

[34] = system: SNU-5; format: functional, cell-based, Homo sapiens; details: Homo sapiens, SNU-5;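 note: cell viability readout used to measure growth inhibition in human NCI-SNU-5 cells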
Description: SANGER: Inhibition of human NCI-SNU-5 cell growth in a cell viability assay.

[35] = system: NKM-1; format: functional, cell-based, Homo sapiens; details: Homo sapiens, NKM-1;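 note: growth inhibition of NKM-1 cells, read out with a cell viability assay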
Description: SANGER: Inhibition of human NKM-1 cell growth in a cell viability assay.

[36] = system: OS-RC-2; format: functional, cell-based, Homo sapiens; details: Homo sapiens, OS-RC-2;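 note: growth inhibition of human OS-RC-2 cells, measured by a cell viability assay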
Description: SANGER: Inhibition of human OS-RC-2 cell growth in a cell viability assay.

[37] = system: QIMR-WIL; format: functional, cell-based, Homo sapiens; details: Homo sapiens, QIMR-WIL;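 note: growth inhibition of QIMR-WIL cells, read out with a cell viability assay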
Description: SANGER: Inhibition of human QIMR-WIL cell growth in a cell viability assay.

[38] = system: RCC10RGB; format: functional, cell-based, Homo sapiens; details: Homo sapiens, RCC10RGB;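 note: growth inhibition of human RCC10RGB cells, read out by a cell viability assay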
Description: SANGER: Inhibition of human RCC10RGB cell growth in a cell viability assay.

[39] = system: RKO; format: functional, cell-based, Homo sapiens; details: Homo sapiens, RKO;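 note: growth inhibition of human RKO cells, read out with a cell viability assay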
Description: SANGER: Inhibition of human RKO cell growth in a cell viability assay.

[40] = system: RS4-11; format: functional, cell-based, Homo sapiens; details: Homo sapiens, RS4-11;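 note: growth inhibition of RS4-11 cells, read out by a cell viability assay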
Description: SANGER: Inhibition of human RS4-11 cell growth in a cell viability assay.

[41] = system: SF-126; format: functional, cell-based, Homo sapiens; details: Homo sapiens, SF-126;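 note: growth inhibition of human SF126 cells, read out with a cell viability assay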
Description: SANGER: Inhibition of human SF126 cell growth in a cell viability assay.

[42] = system: SH-4; format: functional, cell-based; details: Homo sapiens;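 note: growth inhibition of SH-4 cells, read out with a cell viability assay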
Description: SANGER: Inhibition of human SH-4 cell growth in a cell viability assay.

[43] = system: SW684; format: functional, cell-based, Homo sapiens; details: Homo sapiens, SW684; read-out: IC50;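 note: growth inhibition of human SW684 cells, measured by a cell viability assay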
Description: SANGER: Inhibition of human SW684 cell growth in a cell viability assay.

[44] = system: A388; format: functional, cell-based; details: Homo sapiens;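 note: growth inhibition of human A388 cells, read out with a cell viability assay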
Description: SANGER: Inhibition of human A388 cell growth in a cell viability assay.

[45] = system: A4-Fuk; format: functional, cell-based, Homo sapiens; details: Homo sapiens, A4-Fuk;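 note: growth inhibition of A4-Fuk cells, read out by a cell viability assay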
Description: SANGER: Inhibition of human A4-Fuk cell growth in a cell viability assay.

[46] = system: AM-38; format: functional, cell-based, Homo sapiens; details: Homo sapiens, AM-38;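 note: growth inhibition of AM-38 cells of human origin, read out by a cell viability assay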
Description: SANGER: Inhibition of human AM-38 cell growth in a cell viability assay.

[47] = system: C8166; format: functional, cell-based, Homo sapiens; details: Homo sapiens, C8166;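 note: growth inhibition of human C8166 cells measured by a cell viability assay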
Description: SANGER: Inhibition of human C8166 cell growth in a cell viability assay.

[48] = system: TE-11; format: functional, cell-based; details: Homo sapiens;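 note: growth inhibition of human TE-11 cells, read out by a cell viability assay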
Description: SANGER: Inhibition of human TE-11 cell growth in a cell viability assay.

[49] = system: TGBC24TKB; format: functional, cell-based; details: Homo sapiens;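 note: growth inhibition of human TGBC24TKB cells, read out with a cell viability assay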
Description: SANGER: Inhibition of human TGBC24TKB cell growth in a cell viability assay.

[50] = system: COLO-320-HSR; format: functional, cell-based, Homo sapiens; details: Homo sapiens, COLO-320-HSR;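 note: growth inhibition of COLO-320-HSR cells, determined with a cell viability assay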
Description: SANGER: Inhibition of human COLO-320-HSR cell growth in a cell viability assay.

Measured: IC50

NC(=O)c1ccc(N(C(N)=O)c2c(F)cccc2F)nc1-c1ccc(F)cc1F [VX-702]
99.4 nM: [31]
194 nM: [24]
184 nM: [1]
747 nM: [6]
396 nM: [15]
83 nM: [10]
> 2000 nM: all other assays above
